# PMC3150407, “Differential Inhibitor Sensitivity between Human Kinases VRK1 and VRK2” (PLoS ONE, 2011)
# Entries after “also recorded” stand apart in the source; their conditions may differ. Counter-ions that a name gives are not always drawn.
# Tests used:
# VRK2A = molecular target: T1, VRK2A (Homo sapiens, UniProt Q86Y07); experiment: In vitro kinase assay, VRK2A kinase activity (autophosphorylation and H3 phosphorylation); type: biochemical; conditions: for IC50 / Effect on VRK2 (VRK2A) kinase activity at 100 µM inhibitor (in words): 5 µM ATP; for IC50: H3 phosphorylation or autophosphorylation, read-out: Concentration giving fifty percent inhibition of VRK2A activity; for Effect on VRK2 (VRK2A) kinase activity at 100 µM inhibitor (in words): inhibitor 100 µM, autophosphorylation and H3 phosphorylation
# T1 construct: a full-length protein of 508 aminoacids (known as VRK2 and VRK2A); made in house; host or cells: E. coli BL21
# GST-VRK1 [1] = molecular target: T2, GST-VRK1 (Homo sapiens, UniProt Q99986); experiment: In vitro kinase assay, GST-VRK1 autophosphorylation; type: biochemical; conditions: 5 µM ATP, average of three experiments, ± standard deviation, No inhibition is lack of effect at 100 µM; for IC50: read-out: IC50 (µM) GST-VRK1 Auto- phosphorylation
# T2 construct: made in house
# T2 sequence (Q99986 1-396): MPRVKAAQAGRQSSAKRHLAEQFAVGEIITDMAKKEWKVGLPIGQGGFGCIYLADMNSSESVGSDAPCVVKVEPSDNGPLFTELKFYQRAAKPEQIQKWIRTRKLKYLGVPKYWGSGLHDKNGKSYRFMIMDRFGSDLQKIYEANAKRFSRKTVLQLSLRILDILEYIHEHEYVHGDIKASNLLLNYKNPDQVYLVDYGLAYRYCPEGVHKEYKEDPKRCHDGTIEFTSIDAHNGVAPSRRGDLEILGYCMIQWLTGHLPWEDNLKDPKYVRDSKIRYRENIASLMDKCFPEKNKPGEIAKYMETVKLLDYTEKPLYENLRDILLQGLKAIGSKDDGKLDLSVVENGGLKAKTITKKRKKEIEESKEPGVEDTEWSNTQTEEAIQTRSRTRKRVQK
# GST-VRK1 [2] = molecular target: T2, GST-VRK1; experiment: In vitro kinase assay, GST-VRK1 phosphorylation of histone H3; type: biochemical; conditions: 5 µM ATP; average of three experiments, ± standard deviation; No inhibition is lack of effect at 100 µM
# CHK2 = conditions: Table S1, known target value; no reference given; read-out: Kinase target (IC50) CHK2; cited from earlier work
# GST-VRK2A [3] = molecular target: T3, GST-VRK2A (Homo sapiens, UniProt Q86Y07); experiment: In vitro kinase assay, GST-VRK2A autophosphorylation; type: biochemical; conditions: for IC50: read-out: IC50 (µM) GST-VRK2A Auto-phosphorylation
# T3 construct: a full-length protein of 508 aminoacids (known as VRK2 and VRK2A); made in house; host or cells: E. coli BL21
# GST-VRK2A [4] = molecular target: T3, GST-VRK2A; experiment: In vitro kinase assay, GST-VRK2A phosphorylation of histone H3; type: biochemical
# S6K = conditions: Table S1, known target value; no reference given; read-out: Kinase target (IC50) S6K; cited from earlier work
# CK1 = conditions: read-out: Concentration inhibiting CK1; cited from earlier work
# [5] = molecular target: vaccinia virus B1R kinase (Vaccinia virus, UniProt P16913); type: biochemical; conditions: p53 and histone H3 as substrates, ATP 5 µM
# MSK1 = conditions: Table S1, known target value; no reference given; read-out: Kinase target (IC50) MSK1; cited from earlier work
# DNA-PKcs = conditions: Table S1, known target value; no reference given; read-out: Kinase target (IC50) DNA-PKcs; cited from earlier work
# human VRK1 = molecular target: T4, human VRK1 (Homo sapiens, UniProt Q99986); experiment: In vitro kinase assay, VRK1 kinase activity (autophosphorylation and H3 phosphorylation); type: biochemical; conditions: for Effect on VRK1 kinase activity at 100 µM inhibitor (in words): inhibitor 100 µM, 5 µM ATP, autophosphorylation and H3 phosphorylation
# T4 construct: made in house
# T4 sequence (Q99986 1-396): T2 sequence (Q99986 1-396)
# ATM = conditions: Table S1, known target value; no reference given; read-out: Kinase target (IC50) ATM; cited from earlier work
# DNA-PK = conditions: Table S1, known target value; no reference given; read-out: Kinase target (IC50) DNA-PK; cited from earlier work
# Mek1 = conditions: Table S1, known target value; no reference given; read-out: Kinase target (IC50) Mek1; cited from earlier work
# LCK = conditions: read-out: Kinase target (IC50) LCK; Table S1, known target value; no reference given; cited from earlier work
# FYN = conditions: read-out: Kinase target (IC50) FYN; Table S1, known target value; no reference given; cited from earlier work
# CK1δ = conditions: read-out: Kinase target (IC50) CK1δ; Table S1, known target value; no reference given; cited from earlier work
# PKC isoforms = conditions: read-out: Reported fifty percent inhibition of PKC isoforms; cited from earlier work
# GSK-3β = conditions: Table S1, known target value; no reference given; read-out: Kinase target (IC50) GSK-3β; cited from earlier work
# [6] = 5 µM ATP, average of three experiments, ± standard deviation, No inhibition is lack of effect at 100 µM
Structure (SMILES),IC50 (µM) GST-VRK1 Auto- phosphorylation (GST-VRK1 [1]),IC50 (µM) GST-VRK1 H3 phosphorylation (GST-VRK1 [2]),Sensitivity of vaccinia virus B1R kinase to inhibitor (in words) [5],Effect on VRK2 (VRK2A) kinase activity at 100 µM inhibitor (in words) (VRK2A),IC50 (µM) GST-VRK2A Auto-phosphorylation (GST-VRK2A [3]; [6]),IC50 (µM) GST-VRK2A H3 phosphorylation (GST-VRK2A [4]; [6]),Effect on VRK1 kinase activity at 100 µM inhibitor (in words) (human VRK1),other results
"NC(=O)Nc1cc(-c2cccc(F)c2)sc1C(=O)N[C@H]1CCCNC1 [AZD7762, 5-(3-Fluorophenyl)-3-ureidothiophene-N-[(S)-piperidin-3-yl]-2-carboxamide]",No inhibition,No inhibition,,,,,,IC50 (VRK2A): 30 µM; IC50 (CHK2): < 0.01 µM; IC50 (GST-VRK2A [3]): 40 ± 1.07 µM; IC50 (GST-VRK2A [4]): 24.4 ± 1.07 µM
COc1cc(OC)c(C=C2C(=O)Nc3ccccc32)c(OC)c1 [IC261],,,not,,,,,IC50 (VRK2A): 10 µM; IC50 (GST-VRK1 [1]): 121.4 ± 1.05 µM; IC50 (S6K): 6 µM; IC50 (GST-VRK1 [2]): 55.9 ± 1.04 µM; IC50 (GST-VRK2A [3]; [6]): 11.1 ± 1.1 µM; IC50 (GST-VRK2A [4]; [6]): 14.7 ± 1.13 µM; IC50 (CK1): 6 µM; IC50 (MSK1): 6 µM
"CC(=O)c1ccc(N2CCOCC2)cc1O [IC86621, 1-(2-Hydroxy-4-morpholin-4-yl-phenyl)ethanone]",No inhibition,No inhibition,,no noticeable effect,No inhibition,No inhibition,no noticeable effect,IC50 (DNA-PKcs): 0.1 µM
"O=c1cc(-c2cccc3c2Sc2ccccc2S3)oc(N2CCOCC2)c1 [KU55933, 2-(4-Morpholinyl)-6-(1-thianthrenyl)-4H-pyran-4-one]",No inhibition,No inhibition,sensitive,no noticeable effect,No inhibition,No inhibition,no noticeable effect,IC50 (ATM): […]
"O=c1cc(N2CCOCC2)oc2c1ccc1ccccc12 [NU7026, 2-(Morpholin-4-yl)-benzo[h]chomen-4-one]",No inhibition,No inhibition,,no noticeable effect,No inhibition,No inhibition,no noticeable effect,IC50 (DNA-PK): 0.23 µM
"COc1cccc(-c2cc(=O)c3ccccc3o2)c1N [PD98059, 2’-Amino-3’-methoxyflavone]",No inhibition,No inhibition,,None of them was able to induce a significant inhibition,No inhibition,No inhibition,None of them was able to induce a significant inhibition,IC50 (Mek1): […]
"Cc1ccc(-c2nn(C(C)(C)C)c3ncnc(N)c23)cc1 [PP1, 4-amino-5-(4-methylphenyl)-7-(t-butyl)pyrazolo-d-3,4-pyridine]",No inhibition,No inhibition,,no effect,No inhibition,No inhibition,no effect,IC50 (LCK): […]; IC50 (FYN): […]; IC50 (CK1δ): 1 µM
"Cn1cc(C2=C(c3cn(CCCSC(=N)N)c4ccccc34)C(=O)NC2=O)c2ccccc21 [RO 31–8220, 2-(1-[3-(Amidinothio)propyl]-1H-indol-3-yl)-3-methanosulfonate salt]",,,sensitive,,,,,IC50 (PKC isoforms): 0.005 to 0.027 µM; IC50 (GST-VRK1 [1]): 11.1 ± 1.16 µM; IC50 (GST-VRK1 [2]): 34.4 ± 1.05 µM; IC50 (GST-VRK2A [3]; [6]): 31.8 ± 1.15 µM; IC50 (GST-VRK2A [4]; [6]): 33.6 ± 1.04 µM
"CC[C@H](CO)Nc1nc(NCc2ccccc2)c2ncn(C(C)C)c2n1 [Roscovitine, 2-(R)-(1-Ethyl-2-hydroxyethylamino)-6-benzylamino-9-isopropylpurine]",No inhibition,No inhibition,,,,,,Effect on VRK1 kinase activity at 250 µM inhibitor (in words) (human VRK1; inhibitor 250 µM): some noticeable effect
"C[S+]([O-])c1ccc(-c2nc(-c3ccc(F)cc3)c(-c3ccncc3)[nH]2)cc1 (stereo not shown) [SB203580, 4-(4-Fluorophenyl)-2-(4-methylsulfinylphenyl)-5-(4-pyridyl)-1H-imidazole]",No inhibition,No inhibition,,None of them was able to induce a significant inhibition,,,None of them was able to induce a significant inhibition,
"CN[C@@H]1C[C@H]2O[C@@](C)([C@@H]1OC)n1c3ccccc3c3c4c(c5c6ccccc6n2c5c31)C(=O)NC4 [Staurosporine, (9S,10R,11R,13R)-2,3,10,11,12,13-Hexahydro-10-methoxy-9-methyl-11-(methylamino)-9,13-epoxy-1H,9H-diindolo[1,2,3-gh:3',2',1'-lm]pyrrolo[3,4-j][1,7]benzodiazonin-1-one]",,,sensitive,,,,,"Inhibition of VRK2A activity, concentration series (in words) (VRK2A; Fig. 3D, concentration not given): not inhibited"
"Cn1sc(=O)n(Cc2ccccc2)c1=O [TDZD-8, 4-benzil-2methyl-1,2,4-thiodiazolidine-3,5-dione]",Inhibition at 7.5 µM,Inhibition at 7.5 µM,,,No inhibition,No inhibition,more sensitive,"Effect on VRK2A kinase activity at 500 µM inhibitor (in words) (VRK2A; inhibitor 500 µM (not shown)): insensitive; Effect on VRK1 kinase activity at 5 µM inhibitor (in words) (human VRK1; inhibitor 5 µM, autophosphorylation or H3 phosphorylation): no significant inhibition; Effect on VRK1 kinase activity at 7.5 µM inhibitor (in words) (human VRK1; inhibitor 7.5 µM, autophosphorylation or H3 phosphorylation): almost completely inhibited; IC50 (GSK-3β): 2 µM"
"O=c1nc(NCc2ccccc2)s[nH]1 [TDZD-20, 5-Benzylamino-3-oxo-2,3-dyhidro-1,2-4-thiadiazole]",No inhibition,No inhibition,,insensitive; also recorded: not able to inhibit,No inhibition,No inhibition,not able to inhibit,"Effect on VRK1 kinase activity at concentrations similar to those of TDZD-8 (in words) (human VRK1; similar concentrations (5 to 7.5 µM), Fig. S2B): no effect; IC50 (GSK-3β): 6.5 µM"
